Measurements from US20030232986A1, “Inhibitors of caspases” (Vertex Pharmaceuticals Incorporated, priority 1998, published 2003).

Experiments:
Caspase-3 = target: T1, Caspase-3 (Homo sapiens, UniProt P42574); test: Caspase-3 enzyme inhibition (Ki); type: biochemical; details: substrate Ac-DEVD-pNA 60 μM, 8% glycerol in buffer, 37° C.
T1 sequence (P42574 29-175 limits assumed): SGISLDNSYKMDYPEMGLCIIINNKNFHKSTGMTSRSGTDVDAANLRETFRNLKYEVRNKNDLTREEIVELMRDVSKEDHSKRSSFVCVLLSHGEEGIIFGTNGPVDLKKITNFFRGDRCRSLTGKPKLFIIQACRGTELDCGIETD
T1 sequence (P42574 176-277 limits assumed): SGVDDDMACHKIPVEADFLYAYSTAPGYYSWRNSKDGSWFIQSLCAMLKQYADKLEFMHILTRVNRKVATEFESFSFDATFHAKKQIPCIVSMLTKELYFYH
Method: (§1) Ki values for test compounds with the various caspases were obtained by the method of Margolin et al. (J. Biol. Chem., 272 pp. 7223-7228 (1997)). Assays were performed in 10 mM Tris (Sigma Corp, St Louis Mo.) pH 7.5, 1 mM Dithiothreitol (DTT, Research Organic INC, Cleveland, Ohio) and 0.1% CHAPS (Pierce, Rockford Ill.) at 37° C. For caspase-3, a solution of 8% glycerol was added to the assay buffer to improve enzyme stability. A 65 μL aliquot of the assay buffer and 5 μL aliquot of the appropriate dilutions of inhibitor in DMSO where pipetted into a 96 well plate, treated with 10 μL of caspase, then diluted in assay buffer (0.5-40 nM active protein by active site titration). A control containing DMSO but no compound was included for each determination. The plates were then incubated for 15 minutes at 37° C., before addition of the appropriate substrate (20 μL, final concentration 1-4×KM, final assay volume 100 μL) to initiate the reaction. Reaction rates were measured at 37° C. either by following the time dependant increase in absorbance at 405 nm (for the pNA substrates) or in fluorescence (Ex 390, Em 460) (for the AMC substrates). The rates obtained were plotted against inhibitor concentration and the data fit to the Morrison tight-binding equation for competitive inhibitors (Morrison, J. F., Biochem. Biophys. Acta, 185 pp. 269-286 (1969)). The substrates used for the individual assays were as follows:
Caspase-3 Ac-DEVD-pNA (Bachem, King of Prussia, Pa.) (final concentration in assay, 60 μM)

Caspase-1 = target: T2, Caspase-1 (Homo sapiens, UniProt P29466); test: Caspase-1 enzyme inhibition (Ki); type: biochemical; details: substrate Suc-YVAD-pNA 80 μM, 37° C., pH 7.5
T2 sequence (P29466 120-297 limits assumed): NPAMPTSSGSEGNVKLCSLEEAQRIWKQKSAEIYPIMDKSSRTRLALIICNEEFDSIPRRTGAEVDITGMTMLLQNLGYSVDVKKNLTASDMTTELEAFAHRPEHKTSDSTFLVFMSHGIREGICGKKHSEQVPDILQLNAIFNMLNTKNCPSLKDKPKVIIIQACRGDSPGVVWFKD
T2 sequence (P29466 317-404 limits assumed): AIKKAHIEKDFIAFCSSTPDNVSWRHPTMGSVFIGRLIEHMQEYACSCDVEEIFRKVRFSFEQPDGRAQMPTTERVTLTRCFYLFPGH
Outline: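 Ki obtained by fitting rate versus inhibitor concentration to the Morrison tight-binding equation for competitive inhibitors, with pNA release read at 405 nm at 37 °C. Substrate Suc-YVAD-pNA (80 μM final) added after 15 min enzyme–inhibitor preincubation in Tris pH 7.5 buffer with DTT and CHAPS.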

[1] = In vivo rat clearance assay (i.v.); details: plasma, iv, i.v. via jugular vein
Method: Cannulations of the jugular and carotid vessels of rats under anesthesia are performed one day prior to the pharmacokinetic study. M. J. Free, R. A. Jaffee; ‘Cannulation techniques for the collection blood and other bodily fluids’; in: Animal Models; p. 480-495; N. J. Alexander, Ed.; Academic Press; (1978). Drug (10 mg/mL) is administered via the jugular vein in a vehicle usually consisting of: propylene glycol/saline, containing 100 mM sodium bicarbonate in a 1:1 ratio. Animals are dosed with 10-20 mg drug/kg and blood samples are drawn at 0, 2, 5, 7, 10, 15, 20, 30, 60, and 90 minutes from an indwelling carotid catheter. The blood is centrifuged to plasma and stored at −20° C. until analysis. Pharmacokinetic analysis of data is performed by non-linear regression using standard software such as RStrip (MicroMath Software, UT) and/or Pcnonlin (SCI Software, NC) to obtain clearance values.
Rat plasma is extracted with an equal volume of acetonitrile (containing 0.1% TFA). Samples are then centrifuged at approximately 1,000×g and the supernatant analyzed by gradient HPLC. A typical assay procedure is described below.
200 μL of plasma is precipitated with 200 μL of 0.1% trifluoroacetic acid (TFA) in acetonitrile and 10 μL of a 50% aqueous zinc chloride solution, vortexed then centrifuged at ^˜1000×g and the supernatant collected and analyzed by HPLC.
A standard curve is run at 20, 10, 5, 2 and 1 μg/mL concentrations.

Caspase-4 = target: T3, Caspase-4 (Homo sapiens, UniProt P49662); test: Caspase-4 enzyme inhibition (Ki); type: biochemical; details: substrate Ac-WEHD-AMC 20 μM, 37° C.
T3 sequence (P49662 81-270 limits assumed): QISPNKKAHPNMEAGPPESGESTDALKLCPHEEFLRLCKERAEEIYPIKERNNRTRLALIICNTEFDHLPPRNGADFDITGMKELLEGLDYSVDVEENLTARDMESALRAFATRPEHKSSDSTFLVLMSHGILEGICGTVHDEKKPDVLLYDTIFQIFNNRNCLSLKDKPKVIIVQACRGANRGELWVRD
T3 sequence (P49662 290-377 limits assumed): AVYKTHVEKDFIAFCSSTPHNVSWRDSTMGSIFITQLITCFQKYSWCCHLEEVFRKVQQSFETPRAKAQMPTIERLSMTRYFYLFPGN
Method: as §1, with “The substrates used for the individual assays were as follows:” left out

Caspase-8 = Caspase-8 (Homo sapiens, UniProt Q14790); test: Caspase-8 enzyme inhibition (Ki); type: biochemical; details: substrate Ac-DEVD-pNA 80 μM, 37° C.
Method: as §1
Caspase-8 Ac-DEVD-pNA (Bachem, King of Prussia, Pa.) (final concentration in assay 80 μM).

Caspase-8, sequence (Q14790 217-374 limits assumed): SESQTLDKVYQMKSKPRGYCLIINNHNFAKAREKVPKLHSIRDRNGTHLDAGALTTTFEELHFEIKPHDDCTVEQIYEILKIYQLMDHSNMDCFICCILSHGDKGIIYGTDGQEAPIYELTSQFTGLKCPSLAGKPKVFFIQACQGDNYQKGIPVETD
Caspase-8, sequence (Q14790 385-479 limits assumed): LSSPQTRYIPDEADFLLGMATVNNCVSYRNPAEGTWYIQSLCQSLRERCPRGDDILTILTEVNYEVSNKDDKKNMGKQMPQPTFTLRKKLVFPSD

| Ki (Caspase-3) | Ki (Caspase-1) | clearance [1] | Ki (Caspase-4) | Ki (Caspase-8) | Structure (SMILES) |
| --- | --- | --- | --- | --- | --- |
| > 1 µM | < 0.01 µM | 3 to 4.8 L/h/kg | < 0.01 µM | 0.01 to 1 µM | C[C@H](NC(=O)c1ccc(N)c(Cl)c1)C(=O)N1CCC[C@H]1C(=O)N[C@H](C=O)CC(=O)O [Example 122b, 3-({-[2-(4-Amino-3-chloro-benzoylamino)-propionyl]-pyrrolidine-2-carbonyl}-amino)-4-oxo-butyric acid] |
| > 1 µM | < 0.01 µM | 3 to 4.8 L/h/kg | < 0.01 µM | > 1 µM | COc1c(C)cc(C(=O)N[C@@H](C)C(=O)N2CCC[C@H]2C(=O)N[C@H](C=O)CC(=O)O)cc1C [Example 122d, 3-({1-[2-(4-Methoxy-3,5-dimethyl-benzoylamino)-propionyl]-pyrrolidine-2-carbonyl}-amino)-4-oxo-butyric acid] |
